Reference: patent US20240246945A1, “NOVEL COMPOUND FOR CROP PROTECTANT” (LG CHEM, LTD., priority 2010, published 2024)

Tested on: Myzus persicae (Sulzer)
Assay: Insecticidal Activity Test 1 against Myzus persicae (Sulzer), foliar spray on potted peppers, approximately 5 ppm
Format: in vivo
Details: in Capsicum, 120 h, approximately 5 ppm drug solution in water, counted on day 5 after spraying, read-out: mortality rate rating
Source text: Insecticidal Activity Test 1 Against Myzus persicae (Sulzer)
(§1) Peppers were planted in plastic pots with a diameter of 8 cm and a height of 8 cm, Myzus persicae (Sulzer) was reproduced therein, and then the number of Myzus persicae (Sulzer) in each pot was investigated. Some of the compounds prepared in the examples were selected, the compound was dispersed in water to be diluted to approximately 5 ppm, thereby preparing a drug solution.
The drug solution was sprayed onto the foliage of the peppers planted in the pots using a hand sprayer and air-dried, and the pots were stored in a green house.
(§2) On day 5 after the drug spraying, the number of Myzus persicae (Sulzer) parasitic on each pepper was counted, a mortality rate was calculated from the following formula, and the rating of each compound was investigated.
(§3) [formula] • A rating: 90% to 100% mortality • B rating: 80% or more and less than 90% mortality • C rating: less than 80% mortality

SMILES | mortality at 5 µg/mL [%]
CCN(C(=O)c1cnc(-c2noc(N3CCCCC3)n2)n1C)c1cccnc1 [Ia-1-1-26, N-ethyl-1-methyl-2-(5-(piperidin-1-yl)-1,2,4-oxadiazol-3-yl)-N-(pyridin-3-yl)-1H-imidazole-5-carboxamide] | 90 to 100
CCN(C(=O)c1cnc(C2=NOC3(CCSCC3)N2C)n1C)c1cccnc1 [Ia-1-4-22, N-ethyl-1-methyl-2-(4-methyl-1-oxa-8-thia-2,4-diazaspiro[4.5]dec-2-en-3-yl)-N-(pyridin-3-yl)-1H-imidazole-5-carboxamide] | 90 to 100
CCN(C(=O)c1cnc(-c2noc(C3CCOCC3)n2)n1C)c1cccnc1 [Ia-1-1-25, N-ethyl-1-methyl-N-(pyridin-3-yl)-2-(5-(tetrahydro-2H-pyran-4-yl)-1,2,4-oxadiazol-3-yl)-1H-imidazole-5-carboxamide] | 90 to 100
CCC1NC(c2ncc(C(=O)N(CC)c3cccnc3)n2C)=NO1 (stereo not drawn) [Ia-1-4-44, N-ethyl-2-(5-ethyl-4,5-dihydro-1,2,4-oxadiazol-3-yl)-1-methyl-N-(pyridin-3-yl)-1H-imidazole-5-carboxamide] | 90 to 100
CCN(C(=O)c1cnc(-c2noc(C3CC3)n2)n1C)c1cccnc1 [Ia-1-1-12, 2-(5-cyclopropyl-1,2,4-oxadiazol-3-yl)-N-ethyl-1-methyl-N-(pyridin-3-yl)-1H-imidazole-5-carboxamide] | 90 to 100
CCN(C(=O)c1cnc(C2=NOC(C)N2)n1C)c1cccnc1 (stereo not drawn) [Ia-1-4-43, N-ethyl-1-methyl-2-(5-methyl-4,5-dihydro-1,2,4-oxadiazol-3-yl)-N-(pyridin-3-yl)-1H-imidazole-5-carboxamide] | 90 to 100
CCN(C(=O)c1cnc(C2=NC3(CCC(C(F)(F)F)CC3)ON2C)n1C)c1cccnc1 (stereo not drawn) [Ia-1-5-6, N-ethyl-1-methyl-2-(2-methyl-8-(trifluoromethyl)-1-oxa-2,4-diazaspiro[4.5]dec-3-en-3-yl)-N-(pyridin-3-yl)-1H-imidazole-5-carboxamide] | 90 to 100
CCN(C(=O)c1cnc(-c2noc(C)n2)n1C)c1cccnc1 [Ia-1-1-1, N-ethyl-1-methyl-2-(5-methyl-1,2,4-oxadiazol-3-yl)-N-(pyridin-3-yl)-1H-imidazole-5-carboxamide] | 90 to 100
CCSc1ccccc1-c1nc(-c2ncc(C(=O)N(CC)c3cccnc3)n2C)no1 [Ia-1-1-43, N-ethyl-2-(5-(2-(ethylthio)phenyl)-1,2,4-oxadiazol-3-yl)-1-methyl-N-(pyridin-3-yl)-1H-imidazole-5-carboxamide] | 90 to 100
CCN(C(=O)c1cnc(C2=NC3(CCOCC3)ON2C)n1C)c1cccnc1 [Ia-1-5-2, N-ethyl-1-methyl-2-(2-methyl-1,8-dioxa-2,4-diazaspiro[4.5]dec-3-en-3-yl)-N-(pyridin-3-yl)-1H-imidazole-5-carboxamide] | 90 to 100
CCN(C(=O)c1cnc(C2=NOC(C)(C)N2C)n1C)c1cccnc1 [Ia-1-4-2, N-ethyl-1-methyl-N-(pyridin-3-yl)-2-(4,5,5-trimethyl-4,5-dihydro-1,2,4-oxadiazol-3-yl)-1H-imidazole-5-carboxamide] | 90 to 100
CCN(C(=O)c1cnc(-c2nnc(C)o2)n1C)c1cccnc1 [Ia-1-3-3, N-ethyl-1-methyl-2-(5-methyl-1,3,4-oxadiazol-2-yl)-N-(pyridin-3-yl)-1H-imidazole-5-carboxamide] | 90 to 100
CCN(C(=O)c1cnc(-c2noc(N(C)C)n2)n1C)c1cccnc1 [Ia-1-1-36, 2-(5-(dimethylamino)-1,2,4-oxadiazol-3-yl)-N-ethyl-1-methyl-N-(pyridin-3-yl)-1H-imidazole-5-carboxamide] | 90 to 100
CCN(C(=O)c1cnc(-c2noc(N3CCCC3)n2)n1C)c1cccnc1 [Ia-1-1-27, N-ethyl-1-methyl-N-(pyridin-3-yl)-2-(5-(pyrrolidin-1-yl)-1,2,4-oxadiazol-3-yl)-1H-imidazole-5-carboxamide] | 90 to 100
CCN(C(=O)c1cnc(-c2nnc(C3CC3)o2)n1C)c1cccnc1 [Ia-1-3-2, 2-(5-cyclopropyl-1,3,4-oxadiazol-2-yl)-N-ethyl-1-methyl-N-(pyridin-3-yl)-1H-imidazole-5-carboxamide] | 90 to 100
CCN(C(=O)c1cnc(C2=NOC(C3CC3)N2)n1C)c1cccnc1 (stereo not drawn) [Ia-1-4-41, 2-(5-cyclopropyl-4,5-dihydro-1,2,4-oxadiazol-3-yl)-N-ethyl-1-methyl-N-(pyridin-3-yl)-1H-imidazole-5-carboxamide] | 90 to 100
CCc1nc(-c2ncc(C(=O)N(CC)c3cccnc3)n2C)no1 [Ia-1-1-8, N-ethyl-2-(5-ethyl-1,2,4-oxadiazol-3-yl)-1-methyl-N-(pyridin-3-yl)-1H-imidazole-5-carboxamide] | 90 to 100

Tested on: Myzus persicae (Sulzer)
Assay: Insecticidal Activity Test 2 against Myzus persicae (Sulzer), foliar spray on potted peppers, approximately 25 ppm
Format: in vivo
Details: in Capsicum, 120 h, approximately 25 ppm drug solution in water, counted on day 5 after spraying, read-out: mortality rate rating
Source text: Insecticidal Activity Test 2 Against Myzus persicae (Sulzer)
as §1, with “25” for “5”
The drug solution was sprayed onto the foliage of the peppers planted in the pots and air-dried, and the pots were stored in a green house.
as §2, §3

SMILES | mortality at 25 µg/mL [%]
CCN(C(=O)c1cnc(C2=NC3(CCOCC3)ON2C)n1C)c1cccnc1 [Ia-1-5-2, N-ethyl-1-methyl-2-(2-methyl-1,8-dioxa-2,4-diazaspiro[4.5]dec-3-en-3-yl)-N-(pyridin-3-yl)-1H-imidazole-5-carboxamide] | 90 to 100
